The text below walks through data of US20250129104A1, “7H-PYRROLO[2,3-D]PYRIMIDINES AND PREPARATION AND USES THEREOF” (BioSplice Therapeutics, Inc., priority 2021, published 2025).

As a reminder, the EC50 is the concentration giving half of the maximal effect.

Bounds are passed on as bounds.

The target in this experiment is recombinant DYRK1A kinase (Homo sapiens (Human), UniProt Q13627). Kind of experiment: DYRK1A kinase assay (Ser/Thr 18 peptide Z-lyte FRET assay). It is filed as biochemical. The following applies: DYRK1A kinase activity; 15 μM ATP, 1 h room temperature; method text calls the value IC50. The protocol:
Representative compounds were screened using the assay procedure for DYRK1A kinase activity as described below.
Each compound was dissolved in DMSO as a 10 mM stock and used to prepare compound source plates. Serial dilution (1:3, 11-point dose-response curves from 10 μM to 0.00016 μM) and compound transfer was performed using the ECHO 550 (Labcyte, Sunnyvale, CA) into 1536-well black-walled round bottom plates (Corning).
The DYRK1A kinase assay was run using the Ser/Thr 18 peptide Z-lyte assay kit according to manufacturer's instructions (Life Technologies—a Division of Thermo-Fisher). This is a non-radioactive assay using fluorescence resonance energy transfer (FRET) between coumarin and fluorescein to detect kinase activity which is represented as a ratio of coumarin emission/fluorescein emission.
Briefly, recombinant DYRK1A kinase, ATP and Ser/Thr peptide 18 were prepared in 1× Kinase buffer to final concentrations of 0.25 μg/mL, 15 μM, and 4 μM respectively. The mixture was allowed to incubate with the representative compounds for one hour at room temperature. All reactions were performed in duplicate. Unphosphorylated (“0% Control”) and phosphorylated (“100% control”) forms of Ser/Thr 18 served as control reactions. Additionally, an 11-point dose-response curve of Staurosporine (1 uM top) was run to serve as a positive compound control.
After incubation, Development Reagent A was diluted in Development Buffer then added to the reaction and allowed to further incubate for one hour at room temperature. The plate was read at Ex 400 Em […] to detect the coumarin signal and Ex 400 Em 520 to measure the signal (EnVision Multilabel Plate Reader, PerkinElmer).
The Emission ratio (Em) was calculated as a ratio of the coumarin (C) emission signal (at 445 nm)/Fluorescein (F) emission signal (at 520 nm). The percent phosphorylation was then calculated using the following formula: [1−((Em ratio×F100%)−C100%)/((C0%−C100%)+(Em ratio×(F100%−F0%)))]. Dose-response curves were generated, and inhibitory concentration (IC50) values were calculated using non-linear regression curve fit in the Dotmatics' Studies Software (Bishops Stortford, UK).
Turning to “4-Methoxy-N-(cis-4-methoxycyclohexyl)-5-(1-methyl-1H-benzo[d][1,2,3]triazol-6-yl)-7H-pyrrolo[2,3-d]pyrimidin-2-amine [Compound 3114]”, the half-maximal effective concentration (EC50) was 1.2 nM.

Regarding “5-(1-(2,2-Difluoroethyl)-1H-benzo[d][1,2,3]triazol-6-yl)-4-methoxy-N-(cis-4-(trifluoromethoxy)cyclohexyl)-7H-pyrrolo[2,3-d]pyrimidin-2-amine [Compound 2297]”, the EC50 amounted to 458 nM.

Regarding “5-(1-(2,2-Difluoroethyl)-1H-benzo[d][1,2,3]triazol-6-yl)-N-(2-fluoro-2-methylpropyl)-4-methoxy-7H-pyrrolo[2,3-d]pyrimidin-2-amine [Compound 2292]”, the EC50 is 17.4 nM.

Regarding “5-(1-(2,2-Difluoroethyl)-1H-benzo[d][1,2,3]triazol-6-yl)-N-(cis-4-(difluoromethoxy)cyclohexyl)-4-methoxy-7H-pyrrolo[2,3-d]pyrimidin-2-amine [Compound 2296]”, the EC50 was 103 nM.

Turning to “5-(2-Cyclopropyl-7H-pyrrolo[2,3-d]pyrimidin-5-yl)-N-methyl-N-(tetrahydro-2H-pyran-4-yl)pyrazolo[1,5-a]pyridine-3-carboxamide [Compound 1552]”, the concentration giving a half-maximal response (EC50) came to 194 nM.

As to “5-(3-Chloropyrazolo[1,5-a]pyrimidin-5-yl)-N-(2-fluoro-2-methylpropyl)-7H-pyrrolo[2,3-d]pyrimidin-2-amine [Compound 1680]”, the EC50 worked out at 26.1 nM.

For the compound “5-(Imidazo[1,2-a]pyrazin-6-yl)-7H-pyrrolo[2,3-d]pyrimidine [Compound 491]”, the EC50 was found to be 15.5 nM.

For `COc1ccc(-c2c[nH]c3nc(NCC(C)(C)F)ncc23)cc1` [Compound 1, N-(2-Fluoro-2-methylpropyl)-5-(4-methoxyphenyl)-7H-pyrrolo[2,3-d]pyrimidin-2-amine], the 50% effective concentration (EC50) is 236 nM.

For the compound `COc1ccc(-c2c[nH]c3nc(NC4CCN(S(C)(=O)=O)CC4)ncc23)c(OC)c1` [Compound 2, 5-(2,4-Dimethoxyphenyl)-N-(1-(methylsulfonyl)piperidin-4-yl)-7H-pyrrolo [2,3-d]pyrimidin-2-amine], the half-maximal effective concentration (EC50) is 43.8 nM.

Regarding `Cn1cc(-c2c[nH]c3nc(NCC(C)(C)F)ncc23)ccc1=O` [Compound 3, 5-(2-((2-Fluoro-2-methylpropyl)amino)-7H-pyrrolo[2,3-d]pyrimidin-5-yl)-1-methylpyridin-2(1H)-one], the EC50 is 22.1 nM.

On to `Cn1cc(-c2c[nH]c3nc(NC4CCC(F)(F)CC4)ncc23)ccc1=O` [Compound 4, 5-(2-((4,4-Difluorocyclohexyl)amino)-7H-pyrrolo[2,3-d]pyrimidin-5-yl)-1-methylpyridin-2(1H)-one], for which the EC50 amounted to 411 nM.

In the case of `CC(C)(F)CNc1ncc2c(-c3ccc(C(F)F)nc3)c[nH]c2n1` [Compound 5, 5-(6-(Difluoromethyl)pyridin-3-yl)-N-(2-fluoro-2-methylpropyl)-7H-pyrrolo [2,3-d]pyrimidin-2-amine], the EC50 came out at 1400 nM.

Regarding `COc1ccc(-c2c[nH]c3nc(NCC(C)(C)F)ncc23)cn1` [Compound 6, N-(2-Fluoro-2-methylpropyl)-5-(6-methoxypyridin-3-yl)-7H-pyrrolo[2,3-d]pyrimidin-2-amine], the concentration for a half-maximal effect (EC50) is 33.9 nM.

As for `CC(C)(F)CNc1ncc2c(-c3ccc(OC(F)F)nc3)c[nH]c2n1` [Compound 7], the EC50 is more than 10000 nM.

In the case of `COc1ccc(-c2c[nH]c3ncnc(N[C@H]4CC[C@H](N5CCOCC5)CC4)c23)cn1` [Compound 8, 5-(6-Methoxypyridin-3-yl)-N-(trans-4-morpholinocyclohexyl)-7H-pyrrolo [2,3-d]pyrimidin-4-amine], the EC50 amounted to 768 nM.

Turning to `COc1ncc(-c2c[nH]c3nc(NCC(C)(C)F)ncc23)cn1` [Compound 9, N-(2-Fluoro-2-methylpropyl)-5-(2-methoxypyrimidin-5-yl)-7H-pyrrolo[2,3-d]pyrimidin-2-amine], the EC50 is 778 nM.
